{"source": "patent US20240024520A1", "about": "“AUTONOMOUS KNOB DOMAIN PEPTIDES” (UCB BIOPHARMA SRL, priority 2020, published 2024)", "key": {"[1]": {"experiment": "In vivo pharmacokinetics after intravenous bolus", "details": "rat, plasma; 1 mg/kg intravenous; male Sprague-Dawley rats; read-out: plasma clearance [C1p]", "protocol": "Plasma pharmacokinetics was studied for each peptide in male Sprague-Dawley rats of a body weight between 324 and 425 g. Drug was administered intravenously via the tail vein. […] Blood samples were taken at 7 minutes, 15 minutes, 30 minutes, followed by 1, 2, 4, 8 and 24 hours. Blood was collected into Li Heparin tubes and spun to prepare plasma samples for bioanalysis. Bioanalytical data was analysed on an individual animal basis using Pharsight Phoenix 64 Build 8.1. Non-compartmental analysis was conducted and mean pharmacokinetic parameters for each drug calculated."}, "[2]": {"details": "relative to unmodified peptide"}, "[3]": {"target": "C5 (Homo sapiens, UniProt P01031)", "sequence (P01031 19-1676)": "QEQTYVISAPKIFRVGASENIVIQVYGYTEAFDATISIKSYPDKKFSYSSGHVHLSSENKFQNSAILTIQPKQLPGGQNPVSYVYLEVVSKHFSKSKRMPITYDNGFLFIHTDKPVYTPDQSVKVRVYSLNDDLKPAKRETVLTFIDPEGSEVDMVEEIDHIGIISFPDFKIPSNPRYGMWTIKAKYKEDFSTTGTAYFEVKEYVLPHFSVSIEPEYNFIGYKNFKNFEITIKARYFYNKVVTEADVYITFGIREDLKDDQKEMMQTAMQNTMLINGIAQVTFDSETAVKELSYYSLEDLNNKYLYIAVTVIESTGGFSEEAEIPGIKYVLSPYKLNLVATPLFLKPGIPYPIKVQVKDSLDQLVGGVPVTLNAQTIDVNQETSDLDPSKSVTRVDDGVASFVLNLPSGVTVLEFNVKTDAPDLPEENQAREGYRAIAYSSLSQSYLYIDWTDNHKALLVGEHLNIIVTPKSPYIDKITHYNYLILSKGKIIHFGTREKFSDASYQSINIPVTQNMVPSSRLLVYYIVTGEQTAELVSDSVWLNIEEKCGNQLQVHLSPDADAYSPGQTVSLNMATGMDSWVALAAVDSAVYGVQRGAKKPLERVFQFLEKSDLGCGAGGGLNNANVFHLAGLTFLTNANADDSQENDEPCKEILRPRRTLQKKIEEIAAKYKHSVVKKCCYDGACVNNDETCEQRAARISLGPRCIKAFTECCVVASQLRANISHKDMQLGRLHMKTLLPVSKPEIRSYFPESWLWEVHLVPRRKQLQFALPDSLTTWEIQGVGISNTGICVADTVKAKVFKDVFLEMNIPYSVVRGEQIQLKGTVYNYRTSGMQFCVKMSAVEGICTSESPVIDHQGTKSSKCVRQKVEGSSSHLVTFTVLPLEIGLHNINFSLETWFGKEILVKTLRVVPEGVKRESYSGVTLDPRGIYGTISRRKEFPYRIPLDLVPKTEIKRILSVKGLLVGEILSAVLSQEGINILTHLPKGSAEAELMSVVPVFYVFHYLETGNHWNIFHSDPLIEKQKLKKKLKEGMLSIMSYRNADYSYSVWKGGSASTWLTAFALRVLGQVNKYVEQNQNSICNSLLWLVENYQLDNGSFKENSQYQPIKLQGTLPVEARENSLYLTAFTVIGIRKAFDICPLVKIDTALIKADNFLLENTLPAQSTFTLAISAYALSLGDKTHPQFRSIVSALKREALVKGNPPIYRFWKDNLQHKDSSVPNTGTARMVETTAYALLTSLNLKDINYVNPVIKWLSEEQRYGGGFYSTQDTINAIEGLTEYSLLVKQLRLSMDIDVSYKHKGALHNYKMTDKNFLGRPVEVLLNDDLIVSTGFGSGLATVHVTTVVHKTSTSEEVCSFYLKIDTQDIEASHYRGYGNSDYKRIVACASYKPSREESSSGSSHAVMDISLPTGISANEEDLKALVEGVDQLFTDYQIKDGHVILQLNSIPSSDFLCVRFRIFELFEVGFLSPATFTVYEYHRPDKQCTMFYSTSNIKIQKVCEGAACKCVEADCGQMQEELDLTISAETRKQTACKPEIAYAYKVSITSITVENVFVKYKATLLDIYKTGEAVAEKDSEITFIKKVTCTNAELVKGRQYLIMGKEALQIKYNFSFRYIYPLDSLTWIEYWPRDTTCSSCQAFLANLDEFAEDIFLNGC", "experiment": "Biacore multi-cycle kinetics on human C5", "type": "binding", "details": "chemical knob domains and variants; result in words", "procedure,_shortened": "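SPR, multi-cycle kinetics: human C5 amine-coupled to CM5 chip (2000-3000 RU, pH 4.5 acetate). Serial peptide dilutions in HBS-EP, 240 s contact, 6000 s dissociation; 2M MgCl2 regeneration. Reference-subtracted data fitted to single-site binding model.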"}}, "note": "Bridge positions count the residues as written; N and C are the ends. * marks the point of attachment. Palmitoyl = CCCCCCCCCCCCCCCC(=O)*"}
{"substance": "Palmitoyl-GCPPGYKSGVDCSPGSECKWGCYAVDGRRYGGYGADSGVGS-OH (disulfide 2-18, 12-22) [K57 chemFE-Palmitoyl]", "values": [{"measurement": "clearance", "setting": "[1]", "result": 0.8, "unit": "mL/min/kg"}, {"measurement": "solubility", "setting": "[2]", "result": "reduced solubility"}, {"measurement": "binding to human C5", "setting": "[3]", "result": "unaffected"}]}
